Holding throughout (type): cell-based
One assay relates to neutrophils. The assay is described as follows: IDP evolution of PMA-treated neutrophils over treatment time. Conditions: normalized IDP vs PMA treatment time in minutes (FIG. 16B). The source says:
In another embodiment according to the invention, isodielectric position dynamics can be used to assist with diagnostics. In particular, activation of leukocytes can be tracked with DCFH-DA oxidation. FIG. 16A is a graph of respiratory burst (DCFH-DA oxidation), showing DCF median intensity on the vertical axis, versus PMA (Phorbol 12-Myristate 13-Acetate, Sigma Aldrich) treatment time in minutes (horizontal axis), at different concentrations of PMA. FIG. 16B is a graph of iso-dielectric point (IDP) evolution of PMA-treated neutrophils, showing normalized IDP on the vertical axis versus PMA treatment time in minutes on the horizontal axis.

Assay [1] deals with human granulocytes. The assay is described as follows: Single-sided iso-dielectric separation (IDS): IDP distributions of PMA-treated vs non-treated granulocytes. The source says: In IDS, a heterogeneous population of cells suspended in high conductivity media was loaded into a microfluidic chip. Other inlets containing intermediate and low conductivity media provided a parallel laminar co-flow. This configuration generated a conductivity gradient perpendicular to the main microfluidic channel flow. The channel also had slanted planar electrodes patterned at the bottom (single-sided IDS) or top and bottom (double-sided IDS). An AC electric field applied to the electrodes generated a DEP barrier that guided the cells across the conductivity gradient. Cells escaped the DEP barrier at their isodielectric position (IDP), which is the position where they are at dielectric equilibrium with the surrounding medium. Cells with different effective permittivity (or effective conductivity) escaped at a different IDP resulting in a transverse spatial distribution of cells. A CCD camera near the end of the channel took videos of the cells. Finally, image-processing software detected these cells and computed the resulting IDP distribution (see FIGS. 4a-4d).
To determine the IDP different populations, suspensions (2×10^6 cells/ml) in PBS buffer with a conductivity of 1.2 S/m (PBS, 1% BSA, 1 u Heparin) were used. For the intermediate and low conductivity media, this buffer was mixed with an isotonic sucrose solution to achieve an intermediate conductivity of 0.8 S/m and a low conductivity of 0.4 S/m.
A function generator (Agilent 33220A) and an amplifier applied a 10 Vpp AC field with the same amplitude across all frequencies. A CCD camera at the end of the main channel imaged fluorescently labeled cells flowing across the field of view. An image detection script analyzed the videos to detect cells in each frame and determine the centroid of each cell. The same script generated cell position distributions that correspond to the resulting IDP distribution.
(§1) Human granulocytes were activated with different concentrations of PMA (Phorbol 12-Myristate 13-Acetate, Sigma Aldrich) in a PBS solution with Mg^++ and Ca^++. To activate the cells, a 1:1 solution of suspended cells was mixed with PMA buffer and the resulting suspension was incubated for 20 min at room temperature.
Using a single-sided IDS platform, the IDP distributions of granulocytes treated with 1 μM PMA and a control population of non-treated granulocytes were examined. A 10 Vpp AC voltage was applied to the electrodes with frequencies ranging from 0.5 MHz to 15 MHz. Cells were loaded at 0.4 μl/min and the intermediate and low conductivity buffer at 0.55 μl/min (1.5 μl/min total). To determine the IDP distributions for each frequency, the IDP distributions of at least 1000 cells were recorded, which required an acquisition of about 1.5 min. […]

For assay [2], the system named is human granulocytes. The assay is described as follows: Flow cytometry and functional assays of PMA-activated granulocytes. The note with it: different doses of PMA. The protocol:
10 ml samples of heparinized human blood were obtained from healthy donors (Blood Research Components, LLC). Two aliquots of 5 ml of blood were set in 3 ml of Mono-Poly Resolving Medium (MP Biosciences) and the samples were spun in a free hanging centrifuge at 400 cfg for 40 min. The resulting layered samples contained a band of granulocytes that were recovered and triple washed with a PBS solution. Finally, the cells were resuspended in a PBS solution (PBS, 1% BSA, 1 u Heparin).
as §1
Flow cytometry (FC) was performed with a BD Accuri (Becton Dickinson) flow cytometer with a 488 nm and a 670 nm emitter. Granulocytes were gated based on side and forward scatter and stained with anti-human CD11b-PE, anti-human CD66b-PerCP-CY5.5 and anti-human CD18-FITC (Becton Dickinson) as activation indicators. Mouse samples were stained using anti-mouse CD-18 and anti-mouse Ly6G as an activation marker.
The first goal was to confirm that IDS is able to discern IDP differences in activated and non-activated human granulocytes extracted from freshly collected blood. […]

For assay [3], the system named is human granulocytes. The assay is described as follows: IDS mechanism study of neutrophil activation with chemical inhibitors. Conditions: 10 MHz; 0.5 μM fMLP, 2 μM PMA; 20 minutes stimulation. As for the experimental part: This experiment focuses on the mechanism study of electrical changes during neutrophil activation. The mechanism study aims to help understand which aspect of neutrophil activation iso-dielectric separation is sensitive to. Different inhibitors were added to reduce the effect of membrane ruffling, reactive oxygen species (ROS) generation, and degranulation before activation to decouple the effect of the three factors. FIG. 19 is a schematic diagram illustrating aspects of activation of a neutrophil in response to a stimulus. In membrane ruffling, volume changes occur with advanced activation. Membrane roughness can increase the membrane capacitance. In Reactive Oxygen Species (ROS) generation, cytoplasm conductivity increases. NADPH oxidase is a major cause of the ROS generation. Degranulation occurs during phagocytosis, and lowers cytoplasmic ionic content. The experiment uses chemical inhibitors to block specific aspects of activation to determine the dominant causes of electrical changes. FIG. 20A is a summary of the procedure. Human granulocytes are first isolated from whole blood with a density gradient method, and then were split into six aliquots for different treatment. CytB, CytB+Jasp, CytB+DPI were added for inhibiting membrane ruffling, membrane ruffling and degranulation, membrane ruffling and ROS generation, respectively. The inhibition treatment lasted for ten minutes. […]

As for `CCCCCCCCCCCCCC(=O)O[C@@H]1[C@@H](C)[C@@]2(O)[C@@H](C=C(CO)C[C@]3(O)C(=O)C(C)=C[C@@H]23)[C@@H]2C(C)(C)[C@]12OC(C)=O` [PMA, Phorbol 12-Myristate 13-Acetate], the “IDP of treated neutrophils versus treatment time” value in the assay with neutrophils was “changes over time”. For the same molecule, the “IDP distribution of treated granulocytes vs non-treated control” value in the assay on human granulocytes [1] (1 μM PMA, as frequency increases (0.5-15 MHz), 10 Vpp) is given as “displaced towards higher IDP”. In the assay on human granulocytes [1] (1 μM PMA, frequencies 10-15 MHz), the “peak ROC area-under-the-curve (AUC), IDP as classification threshold” value is 0.62. In the assay with human granulocytes [1] (1000 nM PMA), the “activation state of neutrophils (IDP profiling)” value is on record as “activated”. In addition, the “ROC area under the curve, IDP as classification criteria” value in the assay on human granulocytes [1] (PMA treated vs control, above 5 MHz) is given as over 0.6. In addition, the “levels of reactive oxygen species” value with human granulocytes [2] is recorded as “increased”. The “CD11b and CD18 expression” value with human granulocytes [2] (20 min at room temperature) is “increased”. Also, in the assay with human granulocytes [3], the “IDP shift of stimulated granulocytes (indicating activation)” value is given as “shifted to the left”.

As for `CSCC[C@H](NC=O)C(=O)N[C@@H](CC(C)C)C(=O)N[C@@H](Cc1ccccc1)C(=O)O` [fMLP, N-Formylmethionyl-leucyl-phenylalanine], the “IDP shift of stimulated granulocytes (indicating activation)” value with human granulocytes [3] is reported as “shifted to the left”.

Values taken from patent publication US10098581B2, “Integrated electrical profiling system for measuring leukocytes activation from whole blood” (Massachusetts Institute of Technology, priority 2014, dated 2018).
